Patent US9321773B2, “Compounds” (Respivert Ltd, priority 2009, dated 2016)
pIC50: −log10 of the molar value.

How the values were obtained:
recombinant PI3 kinase α = recombinant PI3 kinase α (Homo sapiens (Human), UniProt P42336); experiment: Enzyme Inhibition Assay (HTRF PI3K enzyme assay, TR-FRET); format: biochemical; conditions: activity range; read-out: PI3 Kinase Inhibition IC50 values at stated Isozyme α
Source text: (§1) PI3 kinases catalyse the phosphorylation of phosphatidylinositol 4,5-biphosphate (PIP2) to phosphatidylinositol 3,4,5-triphosphate (PIP3) in the presence of ATP and Mg^2+ ions. The PIP3 product can be detected by displacement of biotin-PIP3 from energy transfer complexes consisting of europium labelled anti-GST monoclonal antibody, a GST-tagged Pleckstrin homology (PH) domain, biotinylated PIP3 and streptavidin-allophycocyanin (APC) by the time-resolved fluorescence resonance energy transfer (TR-FRET) (HTRF® PI3K enzyme assay, Millipore). […] The PIP3 product formed by PI3K activity displaces biotin-PIP3 from the complex and results in a loss of energy transfer (decreasing signal).
(§2) The compound to be tested was added, at the desired final concentrations, to a mixture of PIP2 substrate and recombinant PI3 kinase α, δ or γ enzymes (Millipore), and the mixture incubated for 2 hr at RT. […] A stopping solution containing biotinylated PIP3 and the detection mix containing the GST tagged GRP1 pleckstrin homology (PH) domain and fluorophores were then added and the mixture was incubated at RT for 15-18 hr, prior to detection in a fluorescence microplate reader (Varioskan® Flash, ThermoFisher Scientific).

recombinant PI3 kinase γ = recombinant PI3 kinase γ (Homo sapiens (Human), UniProt P48736); experiment: as above; format: biochemical; conditions: activity range; read-out: PI3 Kinase Inhibition IC50 values at stated Isozyme γ
Source text: as §1, §2

recombinant PI3 kinase δ = recombinant PI3 kinase δ (Homo sapiens (Human), UniProt O00329); experiment: as above; format: biochemical; conditions: activity range; read-out: PI3 Kinase Inhibition IC50 values at stated Isozyme δ
Source text: as §1, §2

[1] = tested on: H2O2 induced pAkt in D-U937 cells; experiment: PI3Kδ Cell Based Assay (H2O2 induced pAkt); conditions: Homo sapiens, dU937; activity range; D-U937 cells; read-out: Cellular Activity IC50 values (H2O2 induced pAkt D-U937 Cells)
Method: As a means of assessing PI3K 6 activation in response to stimuli, the phosphorylation status of the protein, Akt, a downstream product of PI3K6, signaling was determined. Human monocytic cells (U937 cells), were differentiated to macrophage-type cells by incubation with phorbol myristate acetate (PMA; 100 ng/mL) for 48 to 72 hr. […] The cells were washed with buffer (PBS containing 0.1% Triton X-100) and were incubated with blocking solution (1% BSA in PBS) for 1 hr and were then re-washed with buffer and incubated overnight with either anti-pAkt antibody or anti-pan-Akt antibody (both from Cell Signaling Technology). […] This reaction was stopped by addition of 100 μL of 1N H2SO4 solution. […] The ratio of pAkt signal to total Akt signal was used to quantitate the extent of PI3K δ activation. […] The IC50 values were calculated from the concentration-response curves generated by the serial dilutions of the test compounds (Table 3 and Table 4).

[2] = tested on: PMA-differentiated U937 cells; experiment: MTT Assay (cell viability); format: cell-based, Human; conditions: percentage loss of cell viability; for Cell Viability MTT Assay in D-U937 cells at 4 hr: 4 hr in 5% FCS; for Cell Viability MTT Assay in D-U937 cells at 24 hr: 24 hr in 10% FCS
Method: PMA-differentiated U937 cells were pre-incubated with compound for 4 hr in 5% FCS or 10% FCS for 24 hr. The supernatant was replaced with 200 μL of new media and 10 μL of MTT stock solution (5 mg/ml) added to each well. After 1 hr incubation, the media were removed, 200 μL of DMSO added to each well and the plates were shaken lightly for 1 hr prior to reading the absorbance at 550 nm. The percentage loss of cell viability was calculated for each well relative to vehicle (0.5% DMSO)-treatment (Table 3).

Chain of recombinant PI3 kinase δ (O00329 whole entry): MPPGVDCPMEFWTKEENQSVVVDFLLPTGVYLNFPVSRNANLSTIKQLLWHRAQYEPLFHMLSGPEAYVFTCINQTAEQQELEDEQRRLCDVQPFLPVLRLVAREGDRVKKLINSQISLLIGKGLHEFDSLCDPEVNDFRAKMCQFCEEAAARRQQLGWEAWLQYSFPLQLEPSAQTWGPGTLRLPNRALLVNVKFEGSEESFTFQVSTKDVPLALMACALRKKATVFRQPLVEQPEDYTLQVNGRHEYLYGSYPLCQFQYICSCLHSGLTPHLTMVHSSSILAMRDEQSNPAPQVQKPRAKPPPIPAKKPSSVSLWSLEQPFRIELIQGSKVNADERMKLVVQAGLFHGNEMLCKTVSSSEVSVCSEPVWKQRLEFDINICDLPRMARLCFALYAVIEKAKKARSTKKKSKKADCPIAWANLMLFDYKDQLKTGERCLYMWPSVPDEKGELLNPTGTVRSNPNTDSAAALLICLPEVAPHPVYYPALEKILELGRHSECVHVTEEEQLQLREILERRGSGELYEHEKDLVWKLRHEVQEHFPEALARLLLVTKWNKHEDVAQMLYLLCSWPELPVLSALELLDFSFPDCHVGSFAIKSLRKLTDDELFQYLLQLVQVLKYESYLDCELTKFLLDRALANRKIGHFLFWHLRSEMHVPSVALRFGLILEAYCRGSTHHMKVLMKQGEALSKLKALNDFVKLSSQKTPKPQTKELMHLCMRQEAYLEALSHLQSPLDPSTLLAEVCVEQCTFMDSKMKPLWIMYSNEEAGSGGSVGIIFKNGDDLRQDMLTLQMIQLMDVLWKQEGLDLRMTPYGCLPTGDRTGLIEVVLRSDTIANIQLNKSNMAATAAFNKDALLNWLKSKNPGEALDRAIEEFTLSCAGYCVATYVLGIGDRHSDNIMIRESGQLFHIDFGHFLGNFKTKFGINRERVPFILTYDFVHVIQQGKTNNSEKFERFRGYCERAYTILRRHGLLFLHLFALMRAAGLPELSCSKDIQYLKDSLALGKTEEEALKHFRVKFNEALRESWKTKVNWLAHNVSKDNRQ
Chain of recombinant PI3 kinase δ (P27986 whole entry partner): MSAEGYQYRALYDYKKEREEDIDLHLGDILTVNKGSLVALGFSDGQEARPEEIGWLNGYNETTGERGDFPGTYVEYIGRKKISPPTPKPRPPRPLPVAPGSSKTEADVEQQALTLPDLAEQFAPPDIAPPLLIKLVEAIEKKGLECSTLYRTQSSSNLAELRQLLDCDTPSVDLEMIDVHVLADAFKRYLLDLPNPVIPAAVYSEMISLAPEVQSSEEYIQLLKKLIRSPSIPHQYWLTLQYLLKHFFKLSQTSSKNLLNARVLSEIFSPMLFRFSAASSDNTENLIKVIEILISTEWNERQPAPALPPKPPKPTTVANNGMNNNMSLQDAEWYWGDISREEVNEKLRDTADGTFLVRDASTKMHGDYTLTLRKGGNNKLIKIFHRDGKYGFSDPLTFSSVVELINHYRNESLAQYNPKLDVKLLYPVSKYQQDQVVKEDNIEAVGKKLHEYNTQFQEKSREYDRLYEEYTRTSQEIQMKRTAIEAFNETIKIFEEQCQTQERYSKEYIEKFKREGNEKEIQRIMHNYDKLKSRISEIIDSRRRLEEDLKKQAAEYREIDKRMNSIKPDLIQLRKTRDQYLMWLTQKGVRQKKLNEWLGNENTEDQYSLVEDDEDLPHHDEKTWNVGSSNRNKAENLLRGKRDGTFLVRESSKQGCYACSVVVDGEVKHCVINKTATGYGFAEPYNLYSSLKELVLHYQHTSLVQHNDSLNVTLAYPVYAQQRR
Chain of recombinant PI3 kinase α (P42336 whole entry): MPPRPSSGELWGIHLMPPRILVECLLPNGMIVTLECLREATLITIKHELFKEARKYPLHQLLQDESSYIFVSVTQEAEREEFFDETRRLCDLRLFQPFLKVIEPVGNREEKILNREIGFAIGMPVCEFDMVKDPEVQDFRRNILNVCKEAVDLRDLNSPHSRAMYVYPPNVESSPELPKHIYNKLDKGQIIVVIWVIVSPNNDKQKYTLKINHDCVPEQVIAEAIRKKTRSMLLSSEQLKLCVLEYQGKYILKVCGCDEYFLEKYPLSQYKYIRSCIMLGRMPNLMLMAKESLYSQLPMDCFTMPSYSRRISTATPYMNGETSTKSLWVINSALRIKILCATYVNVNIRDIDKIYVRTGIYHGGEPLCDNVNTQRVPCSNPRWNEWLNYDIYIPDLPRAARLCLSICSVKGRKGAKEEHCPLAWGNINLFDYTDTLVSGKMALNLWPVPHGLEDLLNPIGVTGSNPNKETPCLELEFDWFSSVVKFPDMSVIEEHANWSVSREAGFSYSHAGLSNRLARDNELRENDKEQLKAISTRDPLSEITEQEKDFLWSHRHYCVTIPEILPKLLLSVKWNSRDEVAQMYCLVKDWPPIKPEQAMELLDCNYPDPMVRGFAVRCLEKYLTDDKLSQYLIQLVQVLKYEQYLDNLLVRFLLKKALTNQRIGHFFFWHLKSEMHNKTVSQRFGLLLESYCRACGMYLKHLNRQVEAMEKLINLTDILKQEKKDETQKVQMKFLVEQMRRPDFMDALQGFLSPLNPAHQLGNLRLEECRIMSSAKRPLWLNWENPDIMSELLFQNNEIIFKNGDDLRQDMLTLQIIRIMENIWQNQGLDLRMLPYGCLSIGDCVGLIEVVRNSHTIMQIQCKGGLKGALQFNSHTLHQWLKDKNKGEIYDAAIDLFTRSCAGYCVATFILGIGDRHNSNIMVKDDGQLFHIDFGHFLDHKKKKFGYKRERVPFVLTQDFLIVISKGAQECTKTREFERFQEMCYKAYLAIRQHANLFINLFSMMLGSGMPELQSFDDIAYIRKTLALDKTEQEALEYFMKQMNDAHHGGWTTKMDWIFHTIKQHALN
Chain of recombinant PI3 kinase α (P27986 whole entry partner): as the sequence (P27986 whole entry partner) above
Chain of recombinant PI3 kinase γ (P48736 whole entry): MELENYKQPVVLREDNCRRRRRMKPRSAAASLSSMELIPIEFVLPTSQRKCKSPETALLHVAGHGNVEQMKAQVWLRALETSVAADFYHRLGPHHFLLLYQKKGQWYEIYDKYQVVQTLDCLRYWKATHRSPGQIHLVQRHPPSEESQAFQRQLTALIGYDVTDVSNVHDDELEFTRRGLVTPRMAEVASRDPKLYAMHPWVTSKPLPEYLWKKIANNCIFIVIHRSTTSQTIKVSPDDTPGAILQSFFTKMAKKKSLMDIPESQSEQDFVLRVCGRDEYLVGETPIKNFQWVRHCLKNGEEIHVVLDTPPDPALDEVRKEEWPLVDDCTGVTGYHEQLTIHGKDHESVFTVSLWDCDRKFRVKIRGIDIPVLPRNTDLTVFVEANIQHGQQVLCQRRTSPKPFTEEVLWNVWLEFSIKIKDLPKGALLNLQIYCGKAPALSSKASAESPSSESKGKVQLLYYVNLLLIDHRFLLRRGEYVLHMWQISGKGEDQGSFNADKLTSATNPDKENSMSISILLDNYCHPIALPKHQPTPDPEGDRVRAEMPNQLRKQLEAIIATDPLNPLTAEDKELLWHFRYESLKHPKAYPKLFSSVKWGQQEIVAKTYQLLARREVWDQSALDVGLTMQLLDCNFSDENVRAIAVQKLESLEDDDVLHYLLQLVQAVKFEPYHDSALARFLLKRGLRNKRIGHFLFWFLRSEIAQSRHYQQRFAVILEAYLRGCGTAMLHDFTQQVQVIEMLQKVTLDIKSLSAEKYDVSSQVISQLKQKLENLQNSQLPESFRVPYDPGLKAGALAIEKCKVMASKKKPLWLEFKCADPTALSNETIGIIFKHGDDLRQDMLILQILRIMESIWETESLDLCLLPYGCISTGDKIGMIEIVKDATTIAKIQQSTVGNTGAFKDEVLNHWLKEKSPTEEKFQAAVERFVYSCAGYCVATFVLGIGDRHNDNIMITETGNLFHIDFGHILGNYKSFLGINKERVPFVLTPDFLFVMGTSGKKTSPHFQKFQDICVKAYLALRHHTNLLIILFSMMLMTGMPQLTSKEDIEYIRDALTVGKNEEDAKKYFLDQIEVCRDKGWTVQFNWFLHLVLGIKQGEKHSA

pIC50 (recombinant PI3 kinase α) | pIC50 (recombinant PI3 kinase γ) | pIC50 (recombinant PI3 kinase δ) | pIC50 [1] | Compound | Cell Viability MTT Assay in D-U937 cells at 4 hr [2] | Cell Viability MTT Assay in D-U937 cells at 24 hr [2]
6.00 to 7.30 | > 7.30 | > 7.30 | > 8.00 | Nc1ncnc2c1c(-c1cccc(O)c1)nn2Cc1nc2cccc(C#CCCCC(=O)N3CCOCC3)c2c(=O)n1Cc1ccc2occc2c1 [Example 67, 2-((4-Amino-3-(3-hydroxyphenyl)-1H-pyrazolo[3,4-d]pyrimidin-1-yl)methyl)-3-(benzofuran-5-ylmethyl)-5-(6-morpholino-6-oxohex-1-yn-1-yl)quinazolin-4(3H)-one] | − (− <30%) | − (− <30%)
6.00 to 7.30 | > 7.30 | > 7.30 | > 8.00 | Nc1ncnc2c1c(-c1cccc(O)c1)nn2Cc1nc2cccc(C#CCCCC(=O)N3CCC(N4CCOCC4)CC3)c2c(=O)n1Cc1ccccc1Cl [Example 70, 2-((4-Amino-3-(3-hydroxyphenyl)-1H-pyrazolo[3,4-d]pyrimidin-1-yl)methyl)-3-(2-chlorobenzyl)-5-(6-(4-morpholinopiperidin-1-yl)-6-oxohex-1-yn-1-yl)quinazolin-4(3H)-one] | − (− <30%) | − (− <30%)
6.00 to 7.30 | > 7.30 | > 7.30 | > 8.00 | CN1CCN(C(=O)CCCC#Cc2cccc3nc(Cn4nc(-c5cccc(O)c5)c5c(N)ncnc54)n(Cc4ccccc4Cl)c(=O)c23)CC1 [Example 69, 2-((4-Amino-3-(3-hydroxyphenyl)-1H-pyrazolo[3,4-d]pyrimidin-1-yl)methyl)-3-(2-chlorobenzyl)-5-(6-(4-methylpiperazin-1-yl)-6-oxohex-1-yn-1-yl)quinazolin-4(3H)-one] | + (+ >30%) | − (− <30%)
6.00 to 7.30 | > 7.30 | > 7.30 | > 8.00 | CCN(CC)C(=O)CCCC#Cc1cccc2nc(Cn3nc(-c4ccc(O)cc4)c4c(N)ncnc43)n(Cc3ccccc3Cl)c(=O)c12 [Example 59, 6-(2-((4-Amino-3-(4-hydroxyphenyl)-1H-pyrazolo[3,4-d]pyrimidin-1-yl)methyl)-3-(2-chlorobenzyl)-4-oxo-3,4-dihydroquinazolin-5-yl)-N,N-diethylhex-5-ynamide] | − (− <30%) | − (− <30%)
6.00 to 7.30 | 6.00 to 7.30 | > 7.30 | > 8.00 | C#Cc1cccc2nc(Cn3nc(-c4ccc(O)cc4)c4c(N)ncnc43)n(Cc3ccc(OC)cc3F)c(=O)c12 [Example 48, 2-((4-Amino-3-(4-hydroxyphenyl)-1H-pyrazolo[3,4-d]pyrimidin-1-yl)methyl)-5-ethynyl-3-(2-fluoro-4-methoxybenzyl)quinazolin-4(3H)-one] | − (− <30%) | − (− <30%)
6.00 to 7.30 | > 7.30 | > 7.30 | > 8.00 | COc1cc(Cn2c(Cn3nc(-c4ccc(O)cc4)c4c(N)ncnc43)nc3cccc(C#CCCCC(=O)N4CCOCC4)c3c2=O)cc(C(F)(F)F)c1 [Example 62, 2-((4-Amino-3-(4-hydroxyphenyl)-1H-pyrazolo[3,4-d]pyrimidin-1-yl)methyl)-3-(3-methoxy-5-(trifluoromethyl)benzyl)-5-(6-morpholino-6-oxohex-1-yn-1-yl)quinazolin-4(3H)-one] | − (− <30%) | − (− <30%)
6.00 to 7.30 | > 7.30 | > 7.30 | > 8.00 | Nc1ncnc2c1c(-c1cccc(O)c1)nn2Cc1nc2cccc(C#CCCCCC(=O)N3CCOCC3)c2c(=O)n1Cc1ccccc1Cl [Example 55, 2-((4-Amino-3-(3-hydroxyphenyl)-1H-pyrazolo[3,4-d]pyrimidin-1-yl)methyl)-3-(2-chlorobenzyl)-5-(7-morpholino-7-oxohept-1-yn-1-yl)quinazolin-4(3H)-one] | − (− <30%) | − (− <30%)
> 7.30 | 6.00 to 7.30 | > 7.30 | > 8.00 | Nc1ncnc2c1c(-c1ccc(O)cc1)nn2Cc1nc2cccc(C#CCC3CCCC3)c2c(=O)n1Cc1ccccc1Cl [Example 39, 2-((4-Amino-3-(4-hydroxyphenyl)-1H-pyrazolo[3,4-d]pyrimidin-1-yl)methyl)-3-(2-chlorobenzyl)-5-(3-cyclopentylprop-1-ynyl)quinazolin-4(3H)-one] | − (− <30%) | − (− <30%)
6.00 to 7.30 | > 7.30 | > 7.30 | > 8.00 | COCCN(CCCC#Cc1cccc2nc(Cn3nc(-c4ccc(O)cc4)c4c(N)ncnc43)n(Cc3ccccc3Cl)c(=O)c12)CCOC [Example 73, 2-((4-Amino-3-(4-hydroxyphenyl)-1H-pyrazolo[3,4-d]pyrimidin-1-yl)methyl)-5-(5-(bis(2-methoxyethyl)amino)pent-1-ynyl)-3-(2-chlorobenzyl)quinazolin-4(3H)-one] | − (− <30%) | − (− <30%)
6.00 to 7.30 | > 7.30 | > 7.30 | > 8.00 | CN1CCCN(C(=O)CCCC#Cc2cccc3nc(Cn4nc(-c5ccc(O)cc5)c5c(N)ncnc54)n(Cc4ccccc4Cl)c(=O)c23)CC1 [Example 93, 2-((4-Amino-3-(4-hydroxyphenyl)-1H-pyrazolo[3,4-d]pyrimidin-1-yl)methyl)-3-(2-chlorobenzyl)-5-(6-(4-methyl-1,4-diazepan-1-yl)-6-oxohex-1-ynyl)quinazolin-4(3H)-one] | − (− <30%) | − (− <30%)
6.00 to 7.30 | > 7.30 | > 7.30 | > 8.00 | COCCN(CCOC)C(=O)CCCC#Cc1cccc2nc(Cn3nc(-c4ccc(O)cc4)c4c(N)ncnc43)n(Cc3ccccc3Cl)c(=O)c12 [Example 82, 6-(2-((4-Amino-3-(4-hydroxyphenyl)-1H-pyrazolo[3,4-d]pyrimidin-1-yl)methyl)-3-(2-chlorobenzyl)-4-oxo-3,4-dihydroquinazolin-5-yl)-N,N-bis(2-methoxyethyl)hex-5-ynamide] | − (− <30%) | − (− <30%)
6.00 to 7.30 | > 7.30 | > 7.30 | > 8.00 | CC(=O)N1CCN(C(=O)CCCC#Cc2cccc3nc(Cn4nc(-c5ccc(O)cc5)c5c(N)ncnc54)n(Cc4ccccc4Cl)c(=O)c23)CC1 [Example 71] | − (− <30%) | − (− <30%)
6.00 to 7.30 | > 7.30 | > 7.30 | > 8.00 | Nc1ncnc2c1c(-c1ccc(O)cc1)nn2Cc1nc2cccc(C#CCCCC(=O)NC3CCOCC3)c2c(=O)n1Cc1ccccc1Cl [Example 75, 6-(2-((4-Amino-3-(4-hydroxyphenyl)-1H-pyrazolo[3,4-d]pyrimidin-1-yl)methyl)-3-(2-chlorobenzyl)-4-oxo-3,4-dihydroquinazolin-5-yl)-N-(tetrahydro-2H-pyran-4-yl) hex-5-ynamide] | − (− <30%) | − (− <30%)
